Source: a melting point compilation (Tetko et al.)

**Q.** With `COc1ccc(NC(=O)c2ccccc2N)cn1` as the compound, how does the melting point read?
**A.** 129 to 131 °C

**Q.** With `COc1cccc(C(=O)CC#N)c1` as the compound, how does the melting point read?
**A.** 84 to 86 °C

**Q.** For `O=C(OCc1ccc(Br)cc1)c1ccccc1O`, which melting point is on record?
**A.** 69 to 71 °C

**Q.** For `CCc1nnc(NC(=O)CCl)s1`, which melting point is on record?
**A.** 101 to 103 °C

**Q.** Which melting point does the source give for `Cc1ccc(S(=O)(=O)OC2C=CS(=O)(=O)C2)cc1` (stereo not drawn) here?
**A.** 136 to 138 °C

**Q.** Which melting point does the source give for `C#CCNC(=O)c1ccccc1N` here?
**A.** 96 to 98 °C

**Q.** With `Nc1ccc(OCC(F)(F)F)cc1` as the compound, how does the melting point read?
**A.** 66 to 68 °C

**Q.** For `O=C(O)c1csc(-c2cnn(-c3ccccc3)n2)n1`, which melting point is on record?
**A.** 239 to 241 °C

**Q.** With `ClCc1ccc(I)cc1` as the compound, how does the melting point read?
**A.** 49 to 51 °C

**Q.** For `N#Cc1ccccc1OCc1ccc(C(=O)O)o1`, which melting point is on record?
**A.** 145 to 147 °C

**Q.** Which melting point does the source give for `O=C(O)COc1cc(Cl)cc(Cl)c1` here?
**A.** 115 to 117 °C

**Q.** With `Cc1ccc2nc(C3CC3)cc(C(=O)O)c2c1` as the compound, how does the melting point read?
**A.** 207 to 209 °C

**Q.** With `Cc1cnnc(N)n1` as the compound, how does the melting point read?
**A.** 174 to 176 °C

**Q.** For `Cc1nc(-c2ccccc2F)sc1C(C)O` (stereo not drawn), which melting point is on record?
**A.** 79 to 81 °C

**Q.** Which melting point does the source give for `O=C(O)c1cc(C2CC2)nc2ccccc12` here?
**A.** 208 to 210 °C

**Q.** With `CCOC(=O)Cn1ncc2ccccc21` as the compound, how does the melting point read?
**A.** 34 to 36 °C

**Q.** For `CCOC(=O)Cc1nnc(S)n1C`, which melting point is on record?
**A.** 135 to 137 °C

**Q.** Which melting point does the source give for `O=S(=O)(Cl)c1cnn(-c2ccccc2F)c1` here?
**A.** 81 to 83 °C

**Q.** With `C#Cc1cccc(NC(=O)CBr)c1` as the compound, how does the melting point read?
**A.** 118 to 120 °C

**Q.** Which melting point does the source give for `O=C(Cc1ccccc1)Nc1ccccc1C(=O)O` here?
**A.** 192 to 194 °C

**Q.** Which melting point does the source give for `O=C(O)/C=C/c1nc2ccccc2o1` here?
**A.** 223 to 225 °C

**Q.** Which melting point does the source give for `ClCc1cc(Br)ccc1Cl` here?
**A.** 47 to 49 °C

**Q.** For `Cc1ccc(CC(=O)O)cc1O`, which melting point is on record?
**A.** 105 to 107 °C

**Q.** For `CC(N)c1ccc(NS(C)(=O)=O)cc1` (stereo not drawn), which melting point is on record?
**A.** 142 to 144 °C

**Q.** Which melting point does the source give for `CC(N)c1ccc(-n2cncn2)cc1` (stereo not drawn) here?
**A.** 78 to 80 °C

**Q.** With `NC(=O)C(N)c1cccc(Br)c1` (stereo not drawn) as the compound, how does the melting point read?
**A.** 107 to 109 °C

**Q.** With `CC(C)C(C)(CC(=O)N1CCOCC1)C(=O)O` (stereo not drawn) as the compound, how does the melting point read?
**A.** 134 to 136 °C

**Q.** For `CC(NC(=O)c1[nH]nc2ccccc12)C(=O)O` (stereo not drawn), which melting point is on record?
**A.** 208 to 210 °C

**Q.** Which melting point does the source give for `Cc1cc(C)nc(SCC(=O)NN)n1` here?
**A.** 119 to 121 °C

**Q.** For `O=S1(=O)CCCN1c1ccc(Br)cc1`, which melting point is on record?
**A.** 108 to 110 °C

**Q.** For `O=C(O)Cc1ccc(S(=O)(=O)CCO)cc1`, which melting point is on record?
**A.** 99 to 101 °C

**Q.** With `CCCCC(NC(=O)C(C)NC(C)=O)C(=O)O` (stereo not drawn) as the compound, how does the melting point read?
**A.** 143 to 145 °C

**Q.** With `COc1cc(C#N)cc(Cl)c1OC(C)C` as the compound, how does the melting point read?
**A.** 84 to 86 °C

**Q.** Which melting point does the source give for `c1cc2c(s1)C1(CCNCC1)OCC2` here?
**A.** 95 to 97 °C

**Q.** Which melting point does the source give for `COc1cccc(CNc2ccc(F)cc2)c1O` here?
**A.** 76 to 78 °C

**Q.** Which melting point does the source give for `O=C(O)CCc1ccncc1` here?
**A.** 209 to 211 °C

**Q.** Which melting point does the source give for `COc1ccc(C(C)=O)cc1CSCC(=O)O` here?
**A.** 106 to 108 °C

**Q.** Which melting point does the source give for `O=C(CCl)NCc1ccc(Cl)cc1` here?
**A.** 107 to 109 °C

**Q.** For `NNc1ccc(C(F)(F)F)cn1`, which melting point is on record?
**A.** 61 to 63 °C

**Q.** For `COCCS(=O)(=O)c1ccc(Cl)c(C(=O)O)c1Cl`, which melting point is on record?
**A.** 129 to 131 °C

**Q.** With `Cc1cc([N+](=O)[O-])ccc1OCCO` as the compound, how does the melting point read?
**A.** 93 to 95 °C

**Q.** With `Clc1cc2nc(-c3ccccc3)nn2cn1` as the compound, how does the melting point read?
**A.** 225 to 227 °C

**Q.** For `Cc1cccc(S(=O)(=O)Cl)c1Br`, which melting point is on record?
**A.** 56 to 58 °C

**Q.** With `CCCN1C(=O)NC(C)(C)C1=O` as the compound, how does the melting point read?
**A.** 109 to 111 °C

**Q.** Which melting point does the source give for `O=C(O)c1cc(C2CC2)nc2c1cnn2C1CCCCC1` here?
**A.** 210 to 212 °C

**Q.** For `O=C(O)c1ccc2c(c1)C(=O)NS2(=O)=O`, which melting point is on record?
**A.** 279 to 281 °C

**Q.** For `Cc1cccn2cc(CC(N)=S)nc12`, which melting point is on record?
**A.** 153 to 155 °C

**Q.** For `CN(C)C(=O)c1cccc([N+](=O)[O-])c1`, which melting point is on record?
**A.** 79 to 81 °C

**Q.** With `CC1CCc2c(sc3nc(S)nc(S)c23)C1` (stereo not drawn) as the compound, how does the melting point read?
**A.** 337 to 339 °C

**Q.** Which melting point does the source give for `O=C(O)C(=O)Nc1ccc(Br)cc1C(F)(F)F` here?
**A.** 116 to 118 °C

**Q.** With `BrCc1cnn(-c2ccccc2)n1` as the compound, how does the melting point read?
**A.** 44 to 46 °C

**Q.** For `COc1ccc(C(C)=O)cc1CN1CCOCC1`, which melting point is on record?
**A.** 58 to 60 °C

**Q.** For `COc1ccc(NC(=O)Nc2ccc(OC)nc2)cn1`, which melting point is on record?
**A.** 215 to 217 °C

**Q.** With `COC(=O)c1sc2cccc(F)c2c1CBr` as the compound, how does the melting point read?
**A.** 157 to 159 °C

**Q.** Which melting point does the source give for `CN1CCN(S(=O)(=O)c2cccnc2NN)CC1` here?
**A.** 109 to 111 °C

**Q.** Which melting point does the source give for `O=C(O)C1CCCN1C(=O)c1cc(Cl)cc(Cl)c1` (stereo not drawn) here?
**A.** 162 to 164 °C

**Q.** Which melting point does the source give for `COc1ccc(-c2nc(N)sc2C)cc1OC` here?
**A.** 185 to 187 °C

**Q.** With `NC(=O)Cn1c(S)nnc1-c1cccs1` as the compound, how does the melting point read?
**A.** 319 to 321 °C

**Q.** With `O=C(O)c1cc(F)cc2[nH]cnc12` as the compound, how does the melting point read?
**A.** 339 to 341 °C

**Q.** Which melting point does the source give for `O=C(CC(=O)Nc1ccccc1)Nc1ccccc1` here?
**A.** 220 to 222 °C

**Q.** With `CC(C)c1[nH]nc(C(=O)O)c1[N+](=O)[O-]` as the compound, how does the melting point read?
**A.** 149 to 151 °C

**Q.** With `O=C(CCl)Nc1ccccc1OC(F)F` as the compound, how does the melting point read?
**A.** 92 to 94 °C

**Q.** For `CC(=CC(=O)O)c1ccc(C(F)(F)F)cc1`, which melting point is on record?
**A.** 122 to 124 °C

**Q.** With `CCc1cc(C(=O)O)sc1C` as the compound, how does the melting point read?
**A.** 108 to 110 °C

**Q.** With `Nc1ccccc1C(=O)Nc1cccc(C(F)(F)F)c1` as the compound, how does the melting point read?
**A.** 133 to 135 °C

**Q.** Which melting point does the source give for `CSc1ccc([N+](=O)[O-])c(C(=O)O)c1` here?
**A.** 176 to 178 °C

**Q.** With `Clc1ccc2[nH]c(C3CCCN3)nc2c1` (stereo not drawn) as the compound, how does the melting point read?
**A.** 124 to 126 °C

**Q.** With `Nc1cc(-c2cccc([N+](=O)[O-])c2)n[nH]1` as the compound, how does the melting point read?
**A.** 137 to 139 °C

**Q.** Which melting point does the source give for `CCC(=O)c1ccc(OC)c(OC)c1` here?
**A.** 61 to 63 °C

**Q.** Which melting point does the source give for `CS(=O)(=O)NCCN=C=S` here?
**A.** 163 to 165 °C

**Q.** For `Cc1cc(C(=O)CBr)ccc1O`, which melting point is on record?
**A.** 119 to 121 °C

**Q.** Which melting point does the source give for `CC(c1ccncc1)n1nccc1N` (stereo not drawn) here?
**A.** 279 to 281 °C

**Q.** Which melting point does the source give for `Cc1cc(O)ccc1C(C)C` here?
**A.** 111 to 114 °C
